According to patent publication US11427558B1, “Indazoles and azaindazoles as LRRK2 inhibitors” (ESCAPE Bio, Inc., priority 2019, dated 2022):

Legend:
[1] = biological target: Recombinant G2019S-LRRK2 protein (Homo sapiens (Human), UniProt Q5S007, G2019S); experiment: LRRK2 kinase activity, LanthaScreen TR-FRET assay (G2019S); assay type: biochemical; conditions: LRRKtide 400 nM, 25 μM ATP, 60 min
How it was run: (§1)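 Recombinant human wild-type or G2019S LRRK2 phosphorylated fluorescein-labelled LRRKtide (ERM-based) with ATP and serially diluted compound for 60 min at room temperature.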

[2] = biological target: Recombinant wild type LRRK2 protein (Homo sapiens (Human), UniProt Q5S007); experiment: LRRK2 kinase activity, LanthaScreen TR-FRET assay (wild type); assay type: biochemical; conditions: LRRKtide 400 nM, 25 μM ATP, 60 min; read-out: LRRK2 WT IC50
How it was run: as §1

Chain of Recombinant wild type LRRK2 protein (Q5S007 whole entry): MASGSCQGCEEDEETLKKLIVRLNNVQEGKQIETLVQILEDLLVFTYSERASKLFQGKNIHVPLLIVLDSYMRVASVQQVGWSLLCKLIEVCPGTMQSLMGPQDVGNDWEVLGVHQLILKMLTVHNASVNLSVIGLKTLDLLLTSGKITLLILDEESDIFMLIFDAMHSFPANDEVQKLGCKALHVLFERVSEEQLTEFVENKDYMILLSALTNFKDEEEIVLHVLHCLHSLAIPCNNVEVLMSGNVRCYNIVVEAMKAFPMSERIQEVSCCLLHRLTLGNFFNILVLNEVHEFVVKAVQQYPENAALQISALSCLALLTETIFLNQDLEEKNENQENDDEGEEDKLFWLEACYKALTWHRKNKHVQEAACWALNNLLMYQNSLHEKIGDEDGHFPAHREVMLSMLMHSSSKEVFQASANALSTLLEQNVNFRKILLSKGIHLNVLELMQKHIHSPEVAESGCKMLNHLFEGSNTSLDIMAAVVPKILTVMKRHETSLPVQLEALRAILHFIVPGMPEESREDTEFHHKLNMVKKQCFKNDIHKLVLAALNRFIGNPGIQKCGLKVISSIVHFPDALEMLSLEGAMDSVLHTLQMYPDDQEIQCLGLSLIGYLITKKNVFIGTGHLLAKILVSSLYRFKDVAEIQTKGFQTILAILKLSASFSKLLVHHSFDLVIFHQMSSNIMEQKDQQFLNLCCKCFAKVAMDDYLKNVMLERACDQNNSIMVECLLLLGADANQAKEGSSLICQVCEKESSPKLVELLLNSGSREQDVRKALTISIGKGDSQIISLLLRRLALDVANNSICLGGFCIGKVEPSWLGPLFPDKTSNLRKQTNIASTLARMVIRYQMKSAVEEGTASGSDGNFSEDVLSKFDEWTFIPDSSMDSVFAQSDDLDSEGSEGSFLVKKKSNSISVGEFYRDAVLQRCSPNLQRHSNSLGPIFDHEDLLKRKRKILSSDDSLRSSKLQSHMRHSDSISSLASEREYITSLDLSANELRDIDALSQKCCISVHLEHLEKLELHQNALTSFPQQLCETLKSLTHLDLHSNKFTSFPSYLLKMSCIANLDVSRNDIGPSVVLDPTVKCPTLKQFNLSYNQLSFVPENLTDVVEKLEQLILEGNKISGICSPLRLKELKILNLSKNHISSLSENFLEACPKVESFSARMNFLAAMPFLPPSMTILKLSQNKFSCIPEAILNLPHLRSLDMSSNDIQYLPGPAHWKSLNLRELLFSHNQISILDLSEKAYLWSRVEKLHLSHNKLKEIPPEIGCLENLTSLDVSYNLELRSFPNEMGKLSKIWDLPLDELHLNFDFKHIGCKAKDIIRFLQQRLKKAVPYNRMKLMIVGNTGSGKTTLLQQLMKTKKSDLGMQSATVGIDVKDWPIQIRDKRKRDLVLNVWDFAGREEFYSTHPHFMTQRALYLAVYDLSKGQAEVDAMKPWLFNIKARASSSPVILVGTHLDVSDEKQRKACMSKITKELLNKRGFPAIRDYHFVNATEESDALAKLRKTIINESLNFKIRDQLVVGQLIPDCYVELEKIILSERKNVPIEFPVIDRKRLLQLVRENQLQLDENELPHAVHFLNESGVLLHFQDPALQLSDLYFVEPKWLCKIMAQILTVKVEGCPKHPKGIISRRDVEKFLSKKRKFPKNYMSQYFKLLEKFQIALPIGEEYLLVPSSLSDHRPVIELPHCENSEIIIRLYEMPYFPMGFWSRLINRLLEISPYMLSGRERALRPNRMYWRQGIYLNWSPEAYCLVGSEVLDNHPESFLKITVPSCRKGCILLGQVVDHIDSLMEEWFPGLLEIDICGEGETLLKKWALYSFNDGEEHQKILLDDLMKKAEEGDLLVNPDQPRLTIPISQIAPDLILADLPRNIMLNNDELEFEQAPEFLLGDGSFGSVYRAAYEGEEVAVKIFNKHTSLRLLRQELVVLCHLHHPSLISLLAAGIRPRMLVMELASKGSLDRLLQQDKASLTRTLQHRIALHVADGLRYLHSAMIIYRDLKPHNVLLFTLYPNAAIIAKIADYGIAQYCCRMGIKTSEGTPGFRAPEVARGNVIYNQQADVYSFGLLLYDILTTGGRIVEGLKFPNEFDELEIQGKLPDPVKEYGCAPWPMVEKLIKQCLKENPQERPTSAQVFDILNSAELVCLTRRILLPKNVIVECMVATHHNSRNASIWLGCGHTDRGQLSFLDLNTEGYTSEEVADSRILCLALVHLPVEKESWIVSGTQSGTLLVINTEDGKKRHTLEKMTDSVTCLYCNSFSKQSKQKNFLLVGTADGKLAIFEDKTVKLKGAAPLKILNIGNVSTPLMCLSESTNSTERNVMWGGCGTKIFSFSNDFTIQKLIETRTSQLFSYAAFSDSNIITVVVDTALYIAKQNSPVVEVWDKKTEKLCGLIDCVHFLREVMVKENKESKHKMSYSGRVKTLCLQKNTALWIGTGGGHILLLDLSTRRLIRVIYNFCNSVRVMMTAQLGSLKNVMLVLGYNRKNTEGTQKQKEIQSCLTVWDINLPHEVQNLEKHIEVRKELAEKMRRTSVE
Chain of Recombinant G2019S-LRRK2 protein (Q5S007 whole entry G2019S): as the sequence (Q5S007 whole entry) above, with G2019S counted along it

SMILES	IC50 [1] [µM]	IC50 [2] [µM]
Cc1c(C#N)cnc(C(=O)Nc2ccc3[nH]nc(C=C4COC4)c3c2)c1C [Example 263, 5-Cyano-3,4-dimethyl-N-(3-(oxetan-3-ylidenemethyl)-1H-indazol-5-yl)picolinamide]	0.1 to 1	1 to 10
COCc1n[nH]c2ccc(NC(=O)c3ncc(C#N)c(C)c3C)cc12 [Example 264, 5-Cyano-N-(3-(methoxymethyl)-1H-indazol-5-yl)-3,4-dimethylpicolinamide]	0.1 to 1	1 to 10
Cc1c(C#N)cnc(C(=O)Nc2ccc3[nH]nc(C4CC4C(F)(F)F)c3c2)c1C (stereo not shown) [Example 265, 5-Cyano-3,4-dimethyl-N-(3-(2-(trifluoromethyl)cyclopropyl)-1H-indazol-5-yl)picolinamide]	0.1 to 1	1 to 10
Cc1c(C#N)cnc(C(=O)Nc2ccc3[nH]nc(/C=C/C(F)(F)F)c3c2)c1C [Example 266, (E)-5-Cyano-3,4-dimethyl-N-(3-(3,3,3-trifluoroprop-1-en-1-yl)-1H-indazol-5-yl)picolinamide]	< 0.1	0.1 to 1
C=C(C)c1n[nH]c2ccc(NC(=O)c3ncc(C#N)c(C)c3C)cc12 [Example 267, 5-Cyano-3,4-dimethyl-N-(3-(prop-1-en-2-yl)-1H-indazol-5-yl)picolinamide]	< 0.1	0.1 to 1
Cc1c(C#N)cnc(C(=O)Nc2ccc3[nH]nc(C4(C)CC4)c3c2)c1C [Example 268, 5-Cyano-3,4-dimethyl-N-(3-(1-methylcyclopropyl)-1H-indazol-5-yl)picolinamide]	0.1 to 1	1 to 10
COC(C)c1n[nH]c2ccc(NC(=O)c3ncc(C#N)c(C)c3C)cc12 (stereo not shown) [Example 269, 5-Cyano-N-(3-(1-methoxyethyl)-1H-indazol-5-yl)-3,4-dimethylpicolinamide]	1 to 10	> 10
Cc1c(C(=O)Nc2ccc3[nH]nc(C(C)C)c3c2)nc(Cl)c(C#N)c1C [Example 270, 6-Chloro-5-cyano-N-(3-isopropyl-1H-indazol-5-yl)-3,4-dimethylpicolinamide]	< 0.1	< 0.1
CCc1n[nH]c2ccc(NC(=O)c3nc(Cl)c(C#N)c(C)c3C)cc12 [Example 271, 6-Chloro-5-cyano-N-(3-ethyl-1H-indazol-5-yl)-3,4-dimethylpicolinamide]	< 0.1	< 0.1
Cc1cc(C#N)cnc1C(=O)Nc1ccc2[nH]nc(-c3ccnnc3)c2c1 [Example 272, 5-Cyano-3-methyl-N-(3-(pyridazin-4-yl)-1H-indazol-5-yl)picolinamide]	< 0.1	0.1 to 1
Cc1cc(-c2n[nH]c3ccc(NC(=O)c4ncc(C#N)cc4C)cc23)cnn1 [Example 273, 5-Cyano-3-methyl-N-(3-(6-methylpyridazin-4-yl)-1H-indazol-5-yl)picolinamide]	< 0.1	0.1 to 1
C=C(C)c1c(C#N)cccc1C(=O)Nc1ccc2[nH]nc(C)c2c1 [Example 274, 3-Cyano-N-(3-methyl-1H-indazol-5-yl)-2-(prop-1-en-2-yl)benzamide]	< 0.1	1 to 10
Cc1nc(C(=O)Nc2ccc3[nH]nc(C)c3c2)c(Cl)c(C)c1C#N [Example 275, 3-Chloro-5-cyano-4,6-dimethyl-N-(3-methyl-1H-indazol-5-yl)picolinamide]	< 0.1	0.1 to 1
Cc1c(C#N)cnc(C(=O)Nc2ccc3[nH]nc(C=C4CCC4)c3c2)c1C [Example 276, 5-Cyano-N-(3-(cyclobutylidenemethyl)-1H-indazol-5-yl)-3,4-dimethylpicolinamide]	< 0.1	0.1 to 1
Cc1c(C#N)cnc(C(=O)Nc2ccc3[nH]nc(-c4ccnc(N5CCOCC5)c4)c3c2)c1C [Example 277, 5-Cyano-3,4-dimethyl-N-(3-(2-morpholinopyridin-4-yl)-1H-indazol-5-yl)picolinamide]	< 0.1	< 0.1
Cc1c(C(=O)Nc2ccc3[nH]nc(-c4ccnc(N5CCOCC5)c4)c3c2)nc(Cl)c(C#N)c1C [Example 278, 6-Chloro-5-cyano-3,4-dimethyl-N-(3-(2-morpholinopyridin-4-yl)-1H-indazol-5-yl)picolinamide]	< 0.1	< 0.1
CCc1cc(-c2n[nH]c3ccc(NC(=O)c4ncc(C#N)c(C)c4C)cc23)ccn1 [Example 279, 5-Cyano-N-(3-(2-ethylpyridin-4-yl)-1H-indazol-5-yl)-3,4-dimethylpicolinamide]	< 0.1	< 0.1
Cc1c(C#N)cnc(C(=O)Nc2ccc3[nH]nc(-c4cccn(C)c4=O)c3c2)c1C [Example 280, 5-Cyano-3,4-dimethyl-N-(3-(1-methyl-2-oxo-1,2-dihydropyridin-3-yl)-1H-indazol-5-yl)picolinamide]	1 to 10	1 to 10
Cc1c(C#N)cnc(C(=O)Nc2ccc3[nH]nc(/C=C/c4ccncc4)c3c2)c1C [Example 281, (E)-5-Cyano-3,4-dimethyl-N-(3-(2-(pyridin-4-yl)vinyl)-1H-indazol-5-yl)picolinamide]	< 0.1	< 0.1

SMILES	IC50 [1] [µM]	IC50 [2] [µM]
C/C=C/c1n[nH]c2ccc(NC(=O)c3nc(Cl)c(C#N)c(C)c3C)cc12 [Example 282, (E)-6-chloro-5-cyano-3,4-dimethyl-N-(3-(prop-1-en-1-yl)-1H-indazol-5-yl)picolinamide]	< 0.1	< 0.1
Cc1nc(C(=O)Nc2ccc3[nH]nc(C4CC4)c3c2)c(Cl)c(C)c1C#N [Example 283, 3-chloro-5-cyano-N-(3-cyclopropyl-1H-indazol-5-yl)-4,6-dimethylpicolinamide]	< 0.1	0.1 to 1
CCc1n[nH]c2ccc(NC(=O)c3ncc(C#N)c(C(F)(F)F)c3C)cc12 [Example 284, 5-Cyano-N-(3-ethyl-1H-indazol-5-yl)-3-methyl-4-(trifluoromethyl)picolinamide]	< 0.1	1 to 10
COc1n[nH]c2ccc(NC(=O)c3ncc(C#N)c(C(F)(F)F)c3C)cc12 [Example 285, 5-Cyano-N-(3-methoxy-1H-indazol-5-yl)-3-methyl-4-(trifluoromethyl)picolinamide]	< 0.1	1 to 10
Cc1c(C(=O)Nc2ccc3[nH]nc(C4CC4)c3c2)ncc(C#N)c1C(F)(F)F [Example 286, 5-Cyano-N-(3-cyclopropyl-1H-indazol-5-yl)-3-methyl-4-(trifluoromethyl)picolinamide]	< 0.1	1 to 10
COc1n[nH]c2ccc(NC(=O)c3nc(C)c(C#N)c(C)c3C)cc12 [Example 287, 5-Cyano-N-(3-methoxy-1H-indazol-5-yl)-3,4,6-trimethylpicolinamide]	< 0.1	0.1 to 1
Cc1cc(C#N)c(C(F)(F)F)nc1C(=O)Nc1ccc2[nH]nc(-c3cnco3)c2c1 [Example 288, 5-Cyano-3-methyl-N-(3-(oxazol-5-yl)-1H-indazol-5-yl)-6-(trifluoromethyl)picolinamide]	< 0.1	< 0.1
Cc1c(C(=O)Nc2ccc3[nH]nc(-c4cnco4)c3c2)ncc(C#N)c1C(F)(F)F [Example 289, 5-Cyano-3-methyl-N-(3-(oxazol-5-yl)-1H-indazol-5-yl)-4-(trifluoromethyl)picolinamide]	< 0.1	< 0.1
Cc1c(C(=O)Nc2ccc3[nH]nc(C#N)c3c2)nc(Cl)c(C#N)c1C [Example 290, 6-Chloro-5-cyano-N-(3-cyano-1H-indazol-5-yl)-3,4-dimethylpicolinamide]	< 0.1	< 0.1
Cc1c(C(=O)Nc2ccc3[nH]nc(C(F)F)c3c2)nc(Cl)c(C#N)c1C [Example 291, 6-Chloro-5-cyano-N-(3-(difluoromethyl)-1H-indazol-5-yl)-3,4-dimethylpicolinamide]	< 0.1	< 0.1
Cc1c(C#N)cnc(C(=O)Nc2ccc3[nH]nc(C(F)F)c3c2)c1C [Example 292, 5-Cyano-N-(3-(difluoromethyl)-1H-indazol-5-yl)-3,4-dimethylpicolinamide]	0.1 to 1	1 to 10
Cc1c(C(=O)Nc2ccc3[nH]nc(C(F)(F)F)c3c2)nc(Cl)c(C#N)c1C [Example 293, 6-Chloro-5-cyano-3,4-dimethyl-N-(3-(trifluoromethyl)-1H-indazol-5-yl)picolinamide]	< 0.1	< 0.1
Cc1n[nH]c2ccc(NC(=O)c3ncc(C#N)cc3C(C)C)cc12 [Example 294, 5-Cyano-3-isopropyl-N-(3-methyl-1H-indazol-5-yl)picolinamide]	0.1 to 1	1 to 10
Cc1n[nH]c2ccc(NC(=O)c3cccc(C#N)c3C(C)C)cc12 [Example 295, 3-Cyano-2-isopropyl-N-(3-methyl-1H-indazol-5-yl)benzamide]	< 0.1	0.1 to 1
Cc1c(C(=O)Nc2ccc3[nH]nc(S(C)(=O)=O)c3c2)nc(Cl)c(C#N)c1C [Example 296, 6-Chloro-5-cyano-3,4-dimethyl-N-(3-(methylsulfonyl)-1H-indazol-5-yl)picolinamide]	< 0.1	0.1 to 1
Cc1c(C#N)cnc(C(=O)Nc2ccc3[nH]nc(C)c3c2)c1C [Example 297, 5-Cyano-3,4-dimethyl-N-(3-methyl-1H-indazol-5-yl)picolinamide]	< 0.1	0.1 to 1
Cc1c(C(=O)Nc2ccc3[nH]nc(C)c3c2)nc(Cl)c(C#N)c1C [Example 298, 6-Chloro-5-cyano-3,4-dimethyl-N-(3-methyl-1H-indazol-5-yl)picolinamide]	< 0.1	< 0.1
COc1c(C#N)ccc(C)c1C(=O)Nc1ccc2[nH]nc(C)c2c1 [Example 299, 3-Cyano-2-methoxy-6-methyl-N-(3-methyl-1H-indazol-5-yl)benzamide]	< 0.1	0.1 to 1
Cc1c(C#N)cnc(C(=O)Nc2ccc3[nH]nc(Br)c3c2)c1C [Example 300, N-(3-Bromo-1H-indazol-5-yl)-5-cyano-3,4-dimethylpicolinamide]	< 0.1	0.1 to 1
